The values that follow come from US7145043B2, “Non-Hazardous oxidative neutralization of aldehydes” (Ethicon, Inc., priority 2003, dated 2006).

Structures are written as SMILES.

The data set relates to Fathead Minnow. The settings on record: 750 mg/L concentration, 48 hours.

Excerpt: CALIFORNIA CODE REGS (“CCR”) Title 22-Fathead Minnow Hazardous Waste Screen Bioassay.

`OO` [Hydrogen peroxide (5%), Hydrogen peroxide] displayed a survival of 0%.
